Marks after values point to notes of the source that are not given here.
Columns and labels:
[1] = tested on: rats with common carotid artery occlusion-induced vascular dementia; test: Water maze test, common carotid artery occlusion-induced vascular dementia rats; type: in vivo, rat; settings: succinate; for orientation angle for reaching the platform / speed for reaching the platform / swimming path length for reaching the platform / time for reaching the platform: x ± s; for Average speed / Number of crossing the platform / Orientation angle / Swimming path length in the platform area/total swimming path length × 100% / Time in the platform area / Time in the platform quadrants: Day 7
Source text: (§1) A rat blood vessel dementia model was made according to the references [ZHAO Xian-lin, FANG Xiu-bin, LI Dong-pei. Establishment of Vascular Dementia Model in Rats, J Chin Med Univ, 2002, 31 (3): 166-168; WANG Yong-yan, Zhang Bo-li, Editor-in-chief. Modern Chinese Medicine Clinic and Research on Vascular Dementia, People's Medical Publishing House, October 2003, First Version 214]: Chloral hydrate 0.4 g/kg was intraperitoneally injected for anesthetizing rats, and bilateral common carotid arteries were isolated and ligated. The animals were fed for 16 weeks, divided into groups on the last 7 days, and administered. The normal control group and the model group were administrated through the intragastric route with distilled water by 0.5 ml/100 g, the positive control group was administrated through the intragastric route with donepezil hydrochloride by 1.75 mg/kg (equivalent to 3.85 times the clinical daily dosage of 5 mg/70 kg), the low, medium and high-dose groups of Crystal Form A of octahydroaminoacridine succinate were administrated through the intragastric route with Crystal Form A of octahydroaminoacridine succinate by 0.7, 1.4 and 2.8 mg/kg (equivalent to 0.96, 1.92 and 3.85 times the clinical daily dosage of 8 mg/70 kg). The water maze test and the step-down test were carried out after continuous administration for 7 days, and the administration was continued during the test period. The water maze test was continuously performed for 7 days, in the first 6 days, in four different water entry points of quadrants 1, 2, 3 and 4, the time, the swimming path length, the orientation angle and the average speed of the rat reaching the platform were measured, meanwhile, the strategy for reaching the platform adopted by rats was observed, on the 7th day, the platform was removed, the number of rats crossing the platform in 2 minutes, the residence time in the platform area, the residence time in the platform quadrants, the percentage of the swimming path length in the platform area quadrants to the total swimming path length, the average speed and the orientation angle were measured. After the water maze test was finished, the step-down test was performed, and the number of electric shocks (or called as the error number) received by each rat within 5 minutes was recorded as the learning performance. The test was performed again after 24 hours, namely, the memory retention test, and the latent period for stepping-down the platform for the first time and the error number in five minutes were recorded. After the step-down test was finished, the brain was taken quickly for pathological examination, and the pathological changes of the hippocampus and the cortex were observed.

[2] = tested on: rats with common carotid artery occlusion-induced vascular dementia; test: Step-down test, common carotid artery occlusion-induced vascular dementia rats; type: in vivo, rat; settings: for Day 1, Error number / Day 2, Error latency / Day 2, Error number: step-down method, x ± s, succinate
Source text: as §1

[3] = Day 4, 2.8 mg/kg intragastric, 2.8 mg/kg
[4] = Day 5, 0.7 mg/kg intragastric, 0.7 mg/kg
[5] = Day 5, 1.4 mg/kg intragastric, 1.4 mg/kg
[6] = Day 5, 2.8 mg/kg intragastric, 2.8 mg/kg
[7] = Day 6, 0.7 mg/kg intragastric, 0.7 mg/kg
[8] = Day 6, 1.4 mg/kg intragastric, 1.4 mg/kg
[9] = Day 6, 2.8 mg/kg intragastric, 2.8 mg/kg
[10] = 0.7 mg/kg intragastric, 0.7 mg/kg
[11] = 1.4 mg/kg intragastric, 1.4 mg/kg
[12] = 2.8 mg/kg intragastric, 2.8 mg/kg

`Nc1c2c(nc3c1CCCC3)CCCC2.O=C(O)CCC(=O)O` [Crystal Form A, 9-amino-1,2,3,4,5,6,7,8-octahydroacridine succinate] was tested, and the “orientation angle for reaching the platform” value [1, 3] was 57.00 ± 17.94 °, the “speed for reaching the platform” value [1, 3] was 27.72 ± 6.59 cm/s and the “swimming path length for reaching the platform” value [1, 3] was 827.58 ± 463.98 cm. For the same molecule, the “time for reaching the platform” value [1, 3] was 22.79 ± 10.04 s, the “adopted strategy for reaching the platform (the peripheral type and the random type %)” value [1, 4] was 67.00% and the “orientation angle for reaching the platform” value [1, 4] was 62.38 ± 27.61 °. For the same molecule, the “speed for reaching the platform” value [1, 4] was 24.14 ± 7.38 cm/s, the “swimming path length for reaching the platform” value [1, 4] was 878.23 ± 464.48 cm and the “time for reaching the platform” value [1, 4] was 71.16 ± 34.92 s. For the same molecule, the “adopted strategy for reaching the platform (the peripheral type and the random type %)” value [1, 5] was 60.00%, the “orientation angle for reaching the platform” value [1, 5] was 55.03 ± 19.71 ° and the “speed for reaching the platform” value [1, 5] was 29.15 ± 10.97 cm/s. The “swimming path length for reaching the platform” value [1, 5] was 515.67 ± 565.72 cm, the “time for reaching the platform” value [1, 5] was 16.28 ± 11.42 s and the “adopted strategy for reaching the platform (the peripheral type and the random type %)” value [1, 6] was 57.50%. The “orientation angle for reaching the platform” value [1, 6] was 55.78 ± 27.48 °, the “speed for reaching the platform” value [1, 6] was 27.44 ± 4.86 cm/s and the “swimming path length for reaching the platform” value [1, 6] was 676.75 ± 429.93 cm. The “time for reaching the platform” value [1, 6] was 21.57 ± 17.15 s, the “adopted strategy for reaching the platform (the peripheral type and the random type %)” value [1, 7] was 66.60% and the “orientation angle for reaching the platform” value [1, 7] was 46.48 ± 22.04 °. For the same molecule, the “speed for reaching the platform” value [1, 7] was 22.02 ± 6.73 cm/s, the “swimming path length for reaching the platform” value [1, 7] was 606.62 ± 360.87 cm and the “time for reaching the platform” value [1, 7] was 37.72 ± 30.12 s. The “adopted strategy for reaching the platform (the peripheral type and the random type %)” value [1, 8] was 60.00* %, the “orientation angle for reaching the platform” value [1, 8] was 53.94 ± 12.47 ° and the “speed for reaching the platform” value [1, 8] was 23.52 ± 2.43 cm/s. For the same molecule, the “swimming path length for reaching the platform” value [1, 8] was 393.13 ± 236.85 cm, the “time for reaching the platform” value [1, 8] was 16.62 ± 8.69 s and the “adopted strategy for reaching the platform (the peripheral type and the random type %)” value [1, 9] was 55.00* %. The “orientation angle for reaching the platform” value [1, 9] was 52.70 ± 15.27 °, the “speed for reaching the platform” value [1, 9] was 23.55 ± 2.66 cm/s and the “swimming path length for reaching the platform” value [1, 9] was 433.81 ± 327.88 cm. The “time for reaching the platform” value [1, 9] was 18.98 ± 13.68 s, the Average speed [1, 10] was 24.04 ± 7.96 cm/s and the “Number of crossing the platform” value [1, 10] was 5.55 ± 4.47. The Orientation angle [1, 10] was 5.56 ± 4.47 °, the “Swimming path length in the platform area/total swimming path length × 100%” value [1, 10] was 26.83 ± 7.77% and the “Time in the platform area” value [1, 10] was 1.86 ± 1.78 s. The “Time in the platform quadrants” value [1, 10] was 33.93 ± 11.68 s, the Average speed [1, 11] was 28.44 ± 9.02 cm/s and the “Number of crossing the platform” value [1, 11] was 12.20 ± 5.99. The Orientation angle [1, 11] was 12.20 ± 5.99 °, the “Swimming path length in the platform area/total swimming path length × 100%” value [1, 11] was 31.89 ± 9.92% and the “Time in the platform area” value [1, 11] was 3.18 ± 2.02 s. For the same molecule, the “Time in the platform quadrants” value [1, 11] was 40.31 ± 12.72 s, the Average speed [1, 12] was 26.15 ± 5.40 cm/s and the “Number of crossing the platform” value [1, 12] was 10.40 ± 4.40. The Orientation angle [1, 12] was 10.40 ± 4.40 °, the “Swimming path length in the platform area/total swimming path length × 100%” value [1, 12] was 28.40 ± 8.75% and the “Time in the platform area” value [1, 12] was 3.23 ± 3.70 s. For the same molecule, the “Time in the platform quadrants” value [1, 12] was 33.72 ± 10.48 s, the “step-down error number vs model group” value ([2]; 1.4 mg/kg, Day 2, P<0.05) was “obviously reduced” and the “step-down error number vs model group” value ([2]; 2.8 mg/kg, Day 1 and Day 2, P<0.05) was “obviously reduced”. The “error latency vs model group” value ([2]; 2.8 mg/kg, Day 2, P<0.05) was “obviously prolonged”, the “Day 1, Error number” value [2, 10] was 7.50 ± 4.06 and the “Day 2, Error latency” value [2, 10] was 215.30 ± 83.07 s. For the same molecule, the “Day 2, Error number” value [2, 10] was 1.70 ± 1.49, the “Day 1, Error number” value [2, 11] was 6.60 ± 2.88 and the “Day 2, Error latency” value [2, 11] was 223.70 ± 75.02 s. For the same molecule, the “Day 2, Error number” value [2, 11] was 1.30 ± 1.25, the “Day 1, Error number” value [2, 12] was 5.80 ± 2.65 and the “Day 2, Error latency” value [2, 12] was 250.10 ± 72.32 s. The “Day 2, Error number” value [2, 12] was 0.90 ± 1.28.
